Test results taken from patent US6271342A, “Sugar-modified cytostatics” (Bayer Aktiengesellschaft, priority 1995, dated 2001).
Counter-ions that a name gives are not always drawn.

test system: SW 480; experiment: Growth inhibition test (MTT) for cytotoxic properties; assay type: cell-based, human; conditions: Table 1a, glycoconjugates of batracyline
Procedure: Growth Inhibition Test for Determination of the Cytotoxic Properties of Glycoconjugates of Batracyline and of Quinolone-a
The human colon cell lines SW 480 and HT 29 (ATCC no. CCL 228 and HBT-38) and the mouse melanoma cell line B 16 F 10 were cultured in Roux dishes in RPMI 1640 medium with addition of 10% FCS. The cultures were then trypsinized and taken up in RPMI plus 10% FCS to a cell count of 50,000 cells/ml. 100 μl of cell suspension/well were introduced into a 96 microwell plate and incubated for 1 day at 37° C. in a CO2 incubating cabinet. A further 100 μl of RPMI medium and 1 μl of dimethyl sulphoxide with the test substances were then added. The growth was checked after day 3 and day 6. 40 μl of MTT solution (3-(4,5-dimethylthiazol-2-yl)-2,5-diphenyltetrazoline bromide) with an initial concentration of 5 mg/ml of H2 O were added to each microwave. The plate was incubated for 5 hours in a CO2 incubating cabinet at 37° C. The medium was then sucked off and 100 μl of i-propanol/well were added. After shaking for 30 minutes with 100 μl of H2 O, the extinction was measured at 540 nm with a Titertek Multiskan MCC/340 (Flow).
The cytotoxic action of the glycoconjugates of batracyline described is shown in Table 1a as the IC50 value in each case for the SW 480 and HT 29 cell lines.

First: C[C@@H]1O[C@H](Oc2ccc(NC(=S)NCCCC[C@H](N)C(=O)N[C@H](C)C(=O)Nc3ccc4c(c3)CN3C(=O)c5ccccc5C3=N4)cc2)[C@@H](O)C[C@@H]1O [Example 3.7, N-{N^ε -[O-(3-Deoxy-β-L-fucosyl)-4-hydroxy-phenylamino-thiocarbonyl]-lysyl-D -alanyl}-batracyline, trifluoroacetate]
Second: CO[C@H]1[C@@H](O)[C@H](O)[C@@H](Oc2ccc(NC(=S)NCCCC[C@H](N)C(=O)N[C@H](C)C(=O)Nc3ccc4c(c3)Cn3c-4nc4ccccc4c3=O)cc2)O[C@H]1C [Example 3.11, N-{N^ε -[O-(4-O-Methyl-β-L-fucosyl)-4-hydroxy-phenylamino-thiocarbonyl]-lysyl-D-alanyl}-batracyline, acetate]
The IC50 of the first is 1.5-fold lower: 55 µM for the first, 85 µM for the second. The first is the more potent here.

CNC(=O)COC1C(O)C(CO)OC(Oc2ccc(NC(=S)NCCCCC(N)C(=O)NC(C)C(=O)Nc3ccc4nc5n(c(=O)c4c3)Cc3ccccc3-5)cc2)C1O [Example 3.20, N-{N^ε -[O-(3-O-(N-Methyl-carbamoylmethyl)-β-D-galactopyranosyl)-4-hydroxy-phenylamino-thiocarbonyl]-lysyl-D-alanyl}-batracyline, trifluoroacetate] and CC(=O)OCC1OC(Oc2ccc(NC(=S)NCCCCC(N)C(=O)NC(C)C(=O)Nc3ccc4nc5n(c(=O)c4c3)Cc3ccccc3-5)cc2)C(O)C(O)C1O [Example 3.24, N-{N^ε -[O-(6-O-Acetyl-β-D-galactopyranosyl)-4-hydroxy-phenylamino-thiocarbonyl]-lysyl-D-alanyl}-batracyline, trifluoroacetate] are within 1.5-fold of each other in IC50: 100 µM for the first, 95 µM for the second.

COC1C(Oc2ccc(NC(=S)NCCCCC(N)C(=O)NC(C)C(=O)Nc3ccc4nc5n(c(=O)c4c3)Cc3ccccc3-5)cc2)OC(CO)C(O)C1OC [Example 3.27, N-{N^ε -[O-(2,3-Di-O-methyl-α-D-mannopyranosyl)-4-hydroxy-phenylamino-thiocarbonyl]-lysyl-D-alanyl}-batracyline, trifluoroacetate] and CC(NC(=O)C(CCCCNC(=S)Nc1ccc(OC2OC(CO)C(O)C(OCC(N)=O)C2O)cc1)NC(=S)Nc1ccc(OC2OC(CO)C(O)C(OCC(N)=O)C2O)cc1)C(=O)Nc1ccc2nc3n(c(=O)c2c1)Cc1ccccc1-3 [Example 6.82, N-{N^α,N^ε -Bis-[O-(3-O-carbamoylmethyl-β-D-galactopyranosyl)-4-hydroxy-phenylamino-thiocarbonyl]-lysyl-D-alanyl}-batracyline] are within 1.5-fold of each other in IC50: 110 µM for the first, 125 µM for the second.

Compared with CO[C@H]1[C@H](O)[C@@H](Oc2ccc(Nc3nc(NCCO)nc(NCCCC[C@H](N)C(=O)N[C@H](C)C(=O)Nc4ccc5c(=O)n6c(nc5c4)-c4ccccc4C6)n3)cc2)O[C@@H](C)[C@H]1O [Example 8.10, N-{N^ε -[4-Hydroxyethylamino-2-[O-(3-O-methyl-β-L-fucosyl)-4-hydroxy-phenylamino]-triazin-6-yl]-lysyl-D-alanyl}-batracyline, trifluoroacetate], CO[C@H]1[C@@H](O)[C@H](O)[C@@H](Oc2ccc(Nc3nc(NCCO)nc(NCCCC[C@H](N)C(=O)N[C@@H](C)C(=O)Nc4ccc5c(c4)CN4C(=O)c6ccccc6C4=N5)n3)cc2)O[C@H]1C [Example 8.12, N-{N^ε -[4-Hydroxyethylamino-2-[O-(4-O-methyl-β-L-fucosyl)-4-hydroxy-phenylamino]-triazin-6-yl]-lysyl-alanyl}-batracyline, trifluoroacetate] is 2.3-fold lower in IC50: 70 µM for the first, 30 µM for the second. The second is the more potent here.

First: N-{N-[O-(β-L-Fucosyl)-4-hydroxy-phenylamino-thiocarbonyl]-glutamyl-D-a lanyl}-batracyline [Example 7.5]
Second: N-{N^α -[4-Hydroxyphenylamino-thiocarbonyl]-N^ε -[O-(4-O-methyl-β-L-fucosyl)-4-hydroxyphenylamino-thiocarbonyl]-lysyl -D-alanyl}-batracyline [Example 5.6]
The IC50 of the first is lower: 80 µM for the first, over 250 µM for the second.

Compared with “N-{N^α,N^ε -Bis-[O-(3,4-O-dideoxy-β-D-galactopyranosyl)-4-hydroxy-phenylamino-th iocarbonyl]-lysyl-D-alanyl}-batracyline [Example 6.83]”, “N-{N^α,N^ε -Bis-[O-(3,4-di-O-methyl-β-D-galactopyranosyl)-4-hydroxy-phenylamino- thiocarbonyl]-lysyl-alanyl}-batracyline [Example 6.85]” is 4.1-fold lower in IC50: 90 µM for the first, 22 µM for the second.

Going from “N-{N^α,N^ε -Bis-[O-(3-O-carbamoylmethyl-β-D-galactopyranosyl)-4-hydroxy-phenylam ino-thiocarbonyl]-lysyl-seryl}-batracyline [Example 6.35]” to “N-{N^α,N^ε -Bis-[O-(3-O-carboxymethyl-β-D-galactopyranosyl)-4-hydroxy-phenylamin o-thiocarbonyl]-lysyl-seryl}-batracyline, di-sodium salt [Example 6.34]”, the IC50 rises from 20 µM to 50 µM (2.5-fold). The first is the more potent here.

Going from “N-{N^α,N^ε -Bis-[O-(3-O-carboxymethyl-β-L-fucosyl)-4-hydroxy-phenylamino-thiocar bonyl]-lysyl-diaminopropionyl}-batracyline, di-sodium salt [Example 6.21]” to “N-{N^α,N^ε -Bis-[O-(3-O-methyl-β-L-fucosyl)-4-hydroxy-phenylamino-thiocarbonyl]- lysyl-diaminopropionyl}-batracyline [Example 6.20]”, the IC50 falls from 150 µM to 80 µM (1.9-fold).

Compared with “N-{N^ε -[4-Hydroxyethylamino-2-[O-(2-O-methyl-β-L-fucosyl)-4-hydroxy-phenyla mino]-triazin-6-yl]-lysyl-alanyl}-batracyline, trifluoroacetate [Example 8.11]”, “N-{N^ε -[-(3-O-Carbamoylmethyl-β-D-galactopyranosyl)-4-hydroxy-phenylamino-t hiocarbonyl]-lysyl-D-alanyl}-batracyline, trifluoroacetate [Example 3.19]” is 1.7-fold higher in IC50: 45 µM for the first, 75 µM for the second.

Going from “N-{N^ε -[O-(3-O-(N-Propyl-carbamoylmethyl)-β-D-galactopyranosyl)-4-hydroxy-p henylamino-thiocarbonyl]-lysyl-D-alanyl}-batracyline, trifluoroacetate [Example 3.21]” to “N-{N^ε -[O-(3-O-Carbamoylmethyl-α-D-mannopyranosyl)-4-hydroxy-phenylamino-t hiocarbonyl]-lysyl-D-alanyl}-batracyline, trifluoroacetate [Example 3.30]”, the IC50 rises from 90 µM to over 250 µM.

Compared with “N-{N^ε -[O-(3-O-Carboxymethyl-α-D-mannopyranosyl)-4-hydroxy-phenylamino-thi ocarbonyl]-lysyl-D-alanyl}-batracyline, trifluoroacetate [Example 3.29]”, “N-{N^ε -[O-(3-O-Carboxymethyl-β-D-galactopyranosyl)-4-hydroxy-phenylamino-th iocarbonyl]-lysyl-D-alanyl}-batracyline, trifluoroacetate [Example 3.18]” is 7.3-fold lower in IC50: 110 µM for the first, 15 µM for the second.

Going from “N-{N^ε -[O-(3-O-Methoxycarbonylmethyl-α-D-mannopyranosyl)-4-hydroxy-phenyla mino-thiocarbonyl]-lysyl-D-alanyl}-batracyline, trifluoroacetate [Example 3.28]” to “N-{N^ε -[O-(3-O-Methyl-β-D-galactopyranosyl)-4-hydroxy-phenylamino-thiocarbo nyl]-lysyl-D-alanyl}-batracyline, trifluoroacetate [Example 3.14]”, the IC50 falls from 60 µM to 40 µM (1.5-fold). The second is the more potent here.
